{"source": "patent US5741687A", "about": "(Toyo Boseki Kaubshiki Kaisha, priority 1992, dated 1998)", "key": {"sorbitol oxidase [1]": {"tested_on": "sorbitol oxidase", "assay": "Sorbitol oxidase activity determined by H2O2 produced, with various monosaccharides and derivatives as substrate", "assay_type": "biochemical, Xanthomonas maltophilia TE3539", "set-up": "concentration or dose not given beside the values", "conditions": "substrate specificity; enzyme activity with respect to D-sorbitol set at 100", "protocol": "First, the following reaction mixture is prepared.\nThe enzyme activity was determined in the case where various monosaccharides and derivatives thereof were used as a substrate. The value of enzyme activity with respect to D-sorbitol was set at 100."}, "sorbitol oxidase [2]": {"tested_on": "sorbitol oxidase", "assay": "Sorbitol oxidase activity determined by H2O2 produced, with various monosaccharides and derivatives as substrate", "assay_type": "biochemical, Xanthomonas maltophilia TE3539", "conditions": "with respect to sorbitol"}}}
{"compound": "O=C(CO)[C@@H](O)[C@H](O)[C@@H](O)CO", "note": "[L-sorbose]", "values": [{"measurement": "Relative activity (%)", "setting": "sorbitol oxidase [1]", "value": 10.60, "unit": "%"}]}
{"compound": "O=C(CO)[C@@H](O)[C@H](O)[C@H](O)CO", "note": "[D-fructose]", "values": [{"measurement": "Relative activity (%)", "setting": "sorbitol oxidase [1]", "value": 2.88, "unit": "%"}]}
{"compound": "O=C[C@H](O)[C@@H](O)[C@@H](O)[C@H](O)CO", "note": "[D-galactose]", "values": [{"measurement": "Relative activity (%)", "setting": "sorbitol oxidase [1]", "value": 0.42, "unit": "%"}]}
{"compound": "OC[C@H]1O[C@H](O[C@H]2[C@H](O)[C@@H](O)C(O)O[C@@H]2CO)[C@H](O)[C@@H](O)[C@@H]1O", "note": "(mixture of isomers) [Maltose]", "values": [{"measurement": "Relative activity (%)", "setting": "sorbitol oxidase [1]", "value": 0.00, "unit": "%"}]}
{"compound": "OC[C@@H](O)C(O)[C@H](O)CO", "note": "[D-arabitol]", "values": [{"measurement": "Relative activity (%)", "setting": "sorbitol oxidase [1]", "value": 23.20, "unit": "%"}]}
{"compound": "OC[C@@H](O)[C@@H](O)[C@H](O)[C@H](O)CO", "note": "[D-mannitol]", "values": [{"measurement": "Relative activity (%)", "setting": "sorbitol oxidase [1]", "value": 86.60, "unit": "%"}]}
{"compound": "OC[C@@H](O)[C@H](O)[C@@H](O)CO", "note": "[D-xylitol]", "values": [{"measurement": "Relative activity (%)", "setting": "sorbitol oxidase [1]", "value": 89.90, "unit": "%"}]}
{"compound": "O[C@H]1[C@H](O)[C@@H](O)[C@H](O)[C@@H](O)[C@H]1O", "note": "[Inositol]", "values": [{"measurement": "Relative activity (%)", "setting": "sorbitol oxidase [1]", "value": 0.40, "unit": "%"}]}
{"compound": "Cl.N[C@H]1C(O)O[C@H](CO)[C@@H](O)[C@@H]1O", "note": "(stereo partly drawn) [D-glucosamine hydrochloride]", "values": [{"measurement": "Relative activity (%)", "setting": "sorbitol oxidase [1]", "value": 0.00, "unit": "%"}]}
{"compound": "OCC(O)CO", "note": "[Glycerol]", "values": [{"measurement": "Relative activity (%)", "setting": "sorbitol oxidase [1]", "value": 3.50, "unit": "%"}]}
{"compound": "O=C[C@H](O)[C@@H](O)[C@H](O)[C@H](O)CO", "note": "[D-glucose]", "values": [{"measurement": "Relative activity (%)", "setting": "sorbitol oxidase [1]", "value": 0.54, "unit": "%"}]}
{"compound": "O=C[C@@H](O)[C@@H](O)[C@H](O)[C@H](O)CO", "note": "[D-mannose]", "values": [{"measurement": "Relative activity (%)", "setting": "sorbitol oxidase [1]", "value": 1.01, "unit": "%"}]}
{"compound": "OC[C@@H](O)[C@@H](O)[C@H](O)[C@@H](O)CO", "note": "[D-sorbitol]", "values": [{"measurement": "Km", "setting": "sorbitol oxidase [2]", "value": 600, "unit": "µM"}, {"measurement": "Relative activity (%)", "setting": "sorbitol oxidase [1]", "value": 100.00, "unit": "%"}]}
